Legend:
[1] = system: inoculum (ileal or cecal cannula filtrate); experiment: swine in vitro model, growth promotant activity; settings: 5 hours, 37° C.; for GLU (% Control): glucose; for LAC (% Control): lactic acid; for LYS (% Control): lysine; for VFA (% Control): total volatile fatty acids
[2] = system: inoculum (rumen cannula filtrate); experiment: rumen in vitro model, growth promotant activity; settings: for GLU (% Control): glucose; for Propionate % (% Control): propionate as percentage of total VFA; for VFA (% Control): total volatile fatty acids; for LYS (% Control): lysine

## avoparcin
[1]; experiment II, 1.67 ppm
  GLU (% Control): 115 % Control
  LAC (% Control): 102 % Control
  LYS (% Control): 101 % Control

## Virginiamycin
[1]; experiment I, 1.67 ppm
  GLU (% Control): 182 % Control
  LAC (% Control): 70 % Control
  LYS (% Control): 82 % Control
[1]; experiment I, 16.67 ppm
  GLU (% Control): 191 % Control
  LAC (% Control): 76 % Control
  LYS (% Control): 127 % Control
[1]; experiment I, 166.67 ppm
  GLU (% Control): 197 % Control
  LAC (% Control): 81 % Control
  LYS (% Control): 163 % Control
  VFA (% Control): 93 % Control
[1]; experiment II, 1.67 ppm
  GLU (% Control): 837 % Control
  LAC (% Control): 21 % Control
  LYS (% Control): 96 % Control
  VFA (% Control): 240 % Control

## CC[C@@]1([C@H]2O[C@H]([C@H]3O[C@@](O)(CO)[C@H](C)C[C@@H]3C)C[C@H]2C)CC[C@H]([C@@]2(C)CC[C@]3(C[C@H](O)[C@@H](C)[C@@H]([C@H](C)[C@H](OC)[C@@H](C)C(=O)O)O3)O2)O1 [Monensin Sodium]
[2]; experiment III, 0.5 ppm
  GLU (% Control): 11 % Control
  Propionate % (% Control): 119 % Control
  VFA (% Control): 94 % Control
[2]; experiment III, 5.0 ppm
  GLU (% Control): 126 % Control
  LYS (% Control): 141 % Control
  Propionate % (% Control): 149 % Control
  VFA (% Control): 104 % Control
[2]; experiment III, 50.0 ppm
  GLU (% Control): 0 % Control
  LYS (% Control): 147 % Control
  Propionate % (% Control): 156 % Control
[2]; experiment IV, 5.0 ppm
  LYS (% Control): 595 % Control
  Propionate % (% Control): 161 % Control
  VFA (% Control): 106 % Control
